Data from patent US20040029138A1, “Global electronic medicine response profile testing network” (priority 2003, published 2004).
Where a name gives a salt, the structure may show the parent alone.

Experiments:
subjects with IBS = test: Double blind, placebo controlled clinical trials of alosetron for IBS, response stratified by 5HTT genotype; assay type: in vivo, human; settings: for Relief of IBS symptoms (subjects achieving relief): 12 weeks treatment
Procedure: Genetic samples were obtained from 219 female human subjects enrolled in clinical trials of alosetron for the treatment of IBS. Using PCR technology as is known in the art, an insertion/deletion genetic marker was assayed in the 5-hydroxytryptamine-transporter gene (5HTT gene). The alleles were labeled as “del” (deletion) or “ins” (insertion) resulting in three possible genotypes (del/del; del/ins or ins/ins). The subjects' response to alosetron in the clinical trial setting was reviewed and correlated with genotype. In the double blind, placebo controlled clinical trials; subjects received 12 weeks of treatment with either alosetron or a placebo. A favorable response to alosetron was when a subject reported relief of IBS symptoms during six weeks of the twelve-week trial. The incidence of various other effects, including constipation, was also recorded. The response of subjects to treatment with alosetron in the clinical trial was stratified according to genotype.

[1] = system: patients with Irritable Bowel Syndrome (IBS); settings: double blind, placebo controlled studies; cited from earlier work

Cc1[nH]cnc1CN1CCc2c(c3ccccc3n2C)C1=O [alosetron, Alosetron hydrochloride]
Relief of IBS symptoms (subjects achieving relief) (subjects with IBS; del/del 5HTT genotype subjects (21/31), relief during six weeks of the twelve-week trial): 68%
Constipation reported (incidence) (subjects with IBS; del/del subjects (n=31), 4 subjects): 13%
Relief of IBS symptoms (subjects achieving relief) (subjects with IBS; del/ins 5HTT genotype subjects (21/33)): 64%
Constipation reported (incidence) (subjects with IBS; del/ins subjects (n=33), 10 subjects): 30%
Effectiveness versus placebo in producing relief of IBS symptoms (subjects with IBS; in each of the three 5HTT genotypes): more effective than placebo
Relief of IBS symptoms (subjects achieving relief) (subjects with IBS; ins/ins 5HTT genotype subjects (22/38)): 58%
Constipation reported (incidence) (subjects with IBS; ins/ins subjects (n=38), 8 subjects): 21%
Constipation reported (incidence) (subjects with IBS; total group of subjects receiving alosetron (n=102)): 21%
Effect on pain and bowel function in IBS patients [1]: reduce pain and improve bowel function
